# Assay results from ChEMBL document CHEMBL1201862, “PubChem BioAssay data set” (2004).
#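 How tested: cells in 96-well plates exposed to compound for 48 hours at five concentrations. GI50 marks 50% less growth.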 Active and inactive are the calls of the source. Cut-off read from the data, not from the text of the source: active = GI50 up to about 1.1 µM and inactive = higher.
# Key:
# Assay in all cases: NCI anticancer screen, dose series, 48 h
# CAKI-1 = test system: CAKI-1
# 786-0 = test system: 786-0
# HT-29 = test system: HT-29
# UACC-257 = test system: UACC-257
# SK-OV-3 = test system: SK-OV-3
# Malme-3M = test system: Malme-3M
# NCI-H23 = test system: NCI-H23
# A498 = test system: A498
# NCI-H226 = test system: NCI-H226
# HCT-116 = test system: HCT-116
# OVCAR-4 = test system: OVCAR-4
# SW-620 = test system: SW-620
# SNB-19 = test system: SNB-19
# NCI-H522 = test system: NCI-H522
# OVCAR-3 = test system: OVCAR-3
# CCRF-CEM = test system: CCRF-CEM
# SK-MEL-5 = test system: SK-MEL-5
# A549 = test system: A549
# MDA-MB-231 = test system: MDA-MB-231
# MDA-N = test system: MDA-N
SMILES,GI50 (CAKI-1),GI50 (786-0),GI50 (HT-29),GI50 (UACC-257),GI50 (SK-OV-3),GI50 (Malme-3M),GI50 (NCI-H23),GI50 (A498),GI50 (NCI-H226),GI50 (HCT-116),GI50 (OVCAR-4),GI50 (SW-620),GI50 (SNB-19),GI50 (NCI-H522),GI50 (OVCAR-3),GI50 (CCRF-CEM),GI50 (SK-MEL-5),GI50 (A549),GI50 (MDA-MB-231),GI50 (MDA-N)
O=C(O)/C=C/c1ccncc1,> 100 µM (inactive),> 100 µM (inactive),> 100 µM (inactive),> 100 µM (inactive),> 100 µM (inactive),> 100 µM (inactive),> 100 µM (inactive),> 100 µM (inactive),> 100 µM (inactive),> 100 µM (inactive),> 100 µM (inactive),> 100 µM (inactive),> 100 µM (inactive),> 100 µM (inactive),> 100 µM (inactive),> 100 µM (inactive),> 100 µM (inactive),,,
O=C(N[C@@H](c1ccccc1)[C@@H](O)C(=O)OCc1ccc2c(c1)OCO2)c1ccccc1,1 µM (active),,> 100 µM (inactive),> 100 µM (inactive),> 100 µM (inactive),> 100 µM (inactive),> 100 µM (inactive),> 100 µM (inactive),> 84.1 µM (inactive),> 100 µM (inactive),> 100 µM (inactive),> 100 µM (inactive),> 100 µM (inactive),> 100 µM (inactive),> 100 µM (inactive),> 100 µM (inactive),> 100 µM (inactive),> 100 µM (inactive),,
CC1C(=O)CC(c2cccs2)N(N=O)C1c1cccs1 (stereo not drawn),> 100 µM (inactive),,23.5 µM (inactive),39.1 µM (inactive),29.8 µM (inactive),> 82 µM (inactive),40.6 µM (inactive),13.7 µM (inactive),> 92 µM (inactive),46.2 µM (inactive),50.2 µM (inactive),54.6 µM (inactive),> 85.3 µM (inactive),28.2 µM (inactive),47 µM (inactive),34 µM (inactive),33.4 µM (inactive),58.3 µM (inactive),,
COC(=O)/C(=C\C(=O)c1ccc(Br)cc1)NN=C(c1ccccc1)c1ccccc1,> 10 µM (inactive),> 10 µM (inactive),> 10 µM (inactive),> 10 µM (inactive),> 10 µM (inactive),> 10 µM (inactive),> 10 µM (inactive),,,,> 10 µM (inactive),> 10 µM (inactive),,,,> 10 µM (inactive),> 10 µM (inactive),> 10 µM (inactive),> 10 µM (inactive),> 10 µM (inactive)
CC1=C[C@@H]2Cc3occc3C(C)(C)[C@@H]2CC1,23.4 µM (inactive),19.4 µM (inactive),16.6 µM (inactive),22.5 µM (inactive),38.1 µM (inactive),20 µM (inactive),24.5 µM (inactive),21.8 µM (inactive),17.9 µM (inactive),19.4 µM (inactive),29.4 µM (inactive),17.1 µM (inactive),> 10 µM (inactive),14.7 µM (inactive),17.7 µM (inactive),18.3 µM (inactive),17.9 µM (inactive),22.9 µM (inactive),,
Cc1ccc(S(=O)(=O)NC(=O)Nc2ccc(C(=O)O)cc2)cc1,,> 100 µM (inactive),> 100 µM (inactive),> 100 µM (inactive),> 100 µM (inactive),> 100 µM (inactive),> 100 µM (inactive),,,> 100 µM (inactive),> 100 µM (inactive),> 100 µM (inactive),> 100 µM (inactive),> 100 µM (inactive),,> 100 µM (inactive),> 100 µM (inactive),> 100 µM (inactive),> 100 µM (inactive),> 100 µM (inactive)
O=C1NCC2(CCNCC2)N1,,> 100 µM (inactive),> 100 µM (inactive),> 100 µM (inactive),> 100 µM (inactive),> 100 µM (inactive),> 100 µM (inactive),> 100 µM (inactive),> 100 µM (inactive),> 100 µM (inactive),> 100 µM (inactive),> 100 µM (inactive),> 100 µM (inactive),,,> 100 µM (inactive),> 100 µM (inactive),> 100 µM (inactive),> 100 µM (inactive),
N#C/N=C(/N)NCO,> 100 µM (inactive),> 43.8 µM (inactive),> 64.1 µM (inactive),> 100 µM (inactive),> 100 µM (inactive),> 100 µM (inactive),> 100 µM (inactive),> 100 µM (inactive),> 100 µM (inactive),> 46 µM (inactive),> 100 µM (inactive),> 37.8 µM (inactive),> 100 µM (inactive),> 100 µM (inactive),> 100 µM (inactive),> 100 µM (inactive),> 100 µM (inactive),> 57.4 µM (inactive),,
Cc1cccc(C(C)(C)C)c1NC(=O)CCc1nnc(S)[nH]1,> 100 µM (inactive),> 100 µM (inactive),> 100 µM (inactive),> 100 µM (inactive),> 100 µM (inactive),> 100 µM (inactive),> 100 µM (inactive),> 100 µM (inactive),> 100 µM (inactive),> 100 µM (inactive),> 100 µM (inactive),> 100 µM (inactive),> 100 µM (inactive),> 100 µM (inactive),> 100 µM (inactive),> 100 µM (inactive),> 100 µM (inactive),> 100 µM (inactive),,
COC(=O)/C(=N/O)C(C(=O)OC)C(=O)C(=O)Nc1c(Cl)cc(C)cc1S(=O)(=O)O (stereo not drawn),> 100 µM (inactive),> 100 µM (inactive),> 100 µM (inactive),> 100 µM (inactive),> 100 µM (inactive),> 100 µM (inactive),> 100 µM (inactive),> 100 µM (inactive),> 100 µM (inactive),43.8 µM (inactive),> 100 µM (inactive),,> 100 µM (inactive),33.5 µM (inactive),> 100 µM (inactive),42.8 µM (inactive),> 100 µM (inactive),> 100 µM (inactive),,
C=CCC1(C(=O)OC)CCC/C(=N\O)C1 (stereo not drawn),> 10 µM (inactive),> 10 µM (inactive),> 10 µM (inactive),> 10 µM (inactive),> 10 µM (inactive),> 10 µM (inactive),> 10 µM (inactive),,,> 10 µM (inactive),> 10 µM (inactive),> 10 µM (inactive),> 10 µM (inactive),> 10 µM (inactive),> 10 µM (inactive),> 10 µM (inactive),> 10 µM (inactive),> 10 µM (inactive),> 10 µM (inactive),> 10 µM (inactive)
COc1cc2c(cc1OCCCCCCCCN1C(=O)c3cccc4cccc(c34)C1=O)N=C[C@@H]1CCCN1C2=O,13.3 µM (inactive),23.6 µM (inactive),15.7 µM (inactive),26.2 µM (inactive),1.79 µM (inactive),21 µM (inactive),15.1 µM (inactive),,14.7 µM (inactive),19.1 µM (inactive),0.171 µM (active),18.7 µM (inactive),35.3 µM (inactive),12 µM (inactive),11.1 µM (inactive),2.82 µM (inactive),12.7 µM (inactive),20 µM (inactive),8.63 µM (inactive),
CC1=C[P+](c2ccccc2)(c2ccccc2)c2ccccc2O1,23.5 µM (inactive),25.2 µM (inactive),2.91 µM (inactive),2.79 µM (inactive),25 µM (inactive),4.71 µM (inactive),4.07 µM (inactive),,15.2 µM (inactive),3.71 µM (inactive),3.42 µM (inactive),5.86 µM (inactive),7.11 µM (inactive),3.25 µM (inactive),1.14 µM (inactive),,2.81 µM (inactive),13.6 µM (inactive),3.96 µM (inactive),
Cc1c(/C=N\NC(=S)NCCNC(=S)N/N=C\c2c(C)n(C)n(-c3ccccc3)c2=O)c(=O)n(-c2ccccc2)n1C,> 100 µM (inactive),> 100 µM (inactive),> 100 µM (inactive),> 100 µM (inactive),> 100 µM (inactive),> 100 µM (inactive),> 100 µM (inactive),> 100 µM (inactive),> 100 µM (inactive),> 100 µM (inactive),> 100 µM (inactive),> 100 µM (inactive),> 100 µM (inactive),,> 100 µM (inactive),,> 100 µM (inactive),> 100 µM (inactive),54.8 µM (inactive),
CCCCCCc1cn([C@H]2C[C@H](O)[C@@H](CO)O2)c(=O)[nH]c1=O,> 100 µM (inactive),,> 100 µM (inactive),> 100 µM (inactive),> 10 µM (inactive),> 100 µM (inactive),> 100 µM (inactive),> 100 µM (inactive),> 100 µM (inactive),> 100 µM (inactive),> 100 µM (inactive),> 100 µM (inactive),> 100 µM (inactive),> 100 µM (inactive),> 100 µM (inactive),> 100 µM (inactive),> 100 µM (inactive),> 100 µM (inactive),,
C=C1CCC23CC(CC[C@@H]2[C@@]12C[C@@H](c1ccoc1)OC2=O)OC3=O (stereo partly drawn),> 100 µM (inactive),> 100 µM (inactive),> 100 µM (inactive),> 100 µM (inactive),> 100 µM (inactive),> 100 µM (inactive),> 100 µM (inactive),> 100 µM (inactive),> 100 µM (inactive),> 100 µM (inactive),> 100 µM (inactive),> 100 µM (inactive),> 100 µM (inactive),> 100 µM (inactive),> 100 µM (inactive),63 µM (inactive),> 100 µM (inactive),> 100 µM (inactive),,
